For series [1], the system named is Phakopsora pachyrhizi. As to the kind of experiment: Test A: test suspension sprayed on soybean seedlings one day before inoculation with Phakopsora pachyrhizi spores (Asian soybean rust), visual disease rating. Particulars: 100 = 100% disease control, 0 = no control; for pest or weed control at 10 ppm / pest or weed control at 50 ppm: Phakopsora pachyrhizi; for pest or weed control at 50 ppm: 50 ppm test suspension. It counts as in vivo. Summed up:
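Compound dissolved in acetone (3% of final volume), then suspended at the stated ppm in 50/50 acetone/water with 250 ppm PEG400 surfactant; sprayed to run-off on soybean seedlings, inoculated with P. pachyrhizi spores next day. Held saturated at 22° C for 24 h, then 8 days at 22° C; visual rating as % disease control versus controls.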

Series [2] has as its system Puccinia recondita f. sp. tritici. As to the kind of experiment: Test B: test suspension sprayed on wheat seedlings one day before inoculation with Puccinia recondita f. sp. tritici spores (wheat leaf rust), disease rating. The series is classed as in vivo. The note with it: 100 = 100% disease control, 0 = no control; for pest or weed control at 50 ppm: 50 ppm test suspension. In short, it runs like this:
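Wheat seedlings were sprayed to run-off with compound suspended in 50/50 acetone/water containing 250 ppm PEG400, then inoculated with P. recondita f. sp. tritici spores the next day. Plants were held 24 h in saturated air at 20 °C, then 6 days in a growth chamber at 20 °C. Disease control was rated 0–100% relative to controls, with some entries run at 50 or 10 ppm.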

Series [3] has as its system Uncinula necator. Kind of series: Test C: test suspension sprayed on grape seedlings one day before inoculation with Uncinula necator spores (grape powdery mildew), disease rating. Particulars: 50 ppm test suspension, 100 = 100% disease control; for pest or weed control at 50 ppm: Erysiphe necator. It counts as in vivo. An excerpt: General protocol for preparing test suspensions for Tests A-C: the test compounds were first dissolved in acetone in an amount equal to 3% of the final volume and then suspended at the desired concentration (in ppm) in acetone and purified water (50/50 mix by volume) containing 250 ppm of the surfactant PEG400 (polyhydric alcohol esters). The resulting test suspensions were then used in Tests A-C. The test solution was sprayed to the point of run-off on grape seedlings. The following day the seedlings were inoculated with a spore suspension of Uncinula necator (the causal agent of grape powdery mildew) and incubated in a growth chamber at 20° C. for 12 days, after which time disease ratings were made. Results for Tests A-C are given in Table A. In the Table, a rating of 100 indicates 100% disease control and a rating of 0 indicates no disease control (relative to the controls). An asterisk “*” or a double asterisk “**” next to the rating value indicates a 50 ppm or 10 ppm test suspension was used, respectively. A dash (-) indicates the compound was not tested.

The structures appear in SMILES notation. Marks after values point to notes of the source that are not given here.

The record followed here is patent publication US20220030868A1, “FUNGICIDAL HALOMETHYL KETONES AND HYDRATES” (FMC CORPORATION, priority 2018, published 2022).

In general, pest or weed control refers to the degree to which the test organism was suppressed or injured, in per cent. A higher pest or weed control goes with a strong effect. As a reminder, the melting point is the temperature of the solid-liquid transition.

For the compound `O=C(NCC1CC1)c1csc(Cc2ccc(OCC3(C(F)(F)F)OCCO3)cc2)n1` [Compound 71, N-(cyclopropylmethyl)-2-[[4-[[2-(trifluoromethyl)-1,3-dioxolan-2-yl]methoxy]phenyl]-methyl]thiazole-4-carboxamide], the melting point fell in the range of 88 to 92 °C. In series [1] (10 ppm test suspension), this compound showed a pest or weed control at 10 ppm of 100%. The pest or weed control at 10 ppm in series [2] (10 ppm test suspension) stood at 96%.
Turning to `CCO/C(=C\Oc1ccc(Cn2cc(C(=O)OCc3ccccc3)cn2)cc1)C(F)(F)F` [Compound 186, phenylmethyl 1-[[4-[[(1Z)-2-ethoxy-3,3,3-trifluoro-1-propen-1-yl]oxy]phenyl]methyl]-1H-pyrazole-4-carboxylate], the melting point lay in the range of 63 to 67 °C. Besides, the pest or weed control at 10 ppm in series [1] (10 ppm test suspension) turned out to be 100%. The pest or weed control at 10 ppm in series [2] (10 ppm test suspension) was 0%. Moreover, the pest or weed control at 50 ppm in series [3] came to 100%.
Take `CCOC(=O)c1cnn(Cc2cccc(O/C=C(\OCC)C(F)(F)F)c2)c1` [Compound 265, ethyl 1-[[3-[[(1Z)-2-ethoxy-3,3,3-trifluoro-1-propen-1-yl]oxy]phenyl]methyl]-1H-pyrazole-4-carboxylate]: the pest or weed control at 50 ppm in series [1] turned out to be 100%; in series [2], 0%; in series [3], 100%.
With `CCOC(=O)c1cnn(Cc2ccc(O/C=C(\OC(C)C)C(F)(F)F)cc2)c1` [compound 57], the “Test A rating (disease control)” value in series [1] (250 ppm test suspension) is recorded as 100%. In addition, the “Test B rating (disease control)” value in series [2] (250 ppm test suspension) was 0%. Also, the “Test C rating (disease control)” value in series [3] was 100* %.
Take `CCOC(=O)c1cnn(Cc2ccc(OCC3(C(F)(F)F)OCCO3)cn2)c1` [compound 124]: the figures for the pest or weed control at 50 ppm in series [1], in series [2] and in series [3] were 100%, 0% and 100%, respectively.
For `CCO/C(=C\Oc1ccc(Cn2cc(C(=O)OC)cn2)cc1)C(F)(F)F` [compound 138], the “Test A rating (disease control)” value in series [1] (10 ppm test suspension) is given as 100%. Further, in series [2] (10 ppm test suspension), the “Test B rating (disease control)” value is 0%. In addition, in series [3], the “Test C rating (disease control)” value is given as 100* %.
With `O=C(COC(=O)c1cnn(Cc2ccc(OCC3(C(F)(F)F)OCCO3)cc2)c1)c1ccccc1` [compound 170], the “Test A rating (disease control)” value in series [1] (10 ppm test suspension) was found to be 100%. For the same compound, the “Test B rating (disease control)” value in series [2] (10 ppm test suspension) was found to be 0%. Further, the “Test C rating (disease control)” value in series [3] was 100* %.
The corresponding values for `C#CCOC(=O)c1cnn(Cc2ccc(O/C=C(\OCC)C(F)(F)F)cc2)c1` [compound 185] are 100%, 0% and 100* %.
The corresponding values for `CCO/C(=C\Oc1ccc(Cn2cc(C(=O)OCC(C)=O)cn2)cc1)C(F)(F)F` [compound 216] are 100%, 0% and 100* %.
As to `CCCOC(=O)c1cnn(Cc2ccc(O/C=C(\OCC)C(F)(F)F)cc2)c1` [compound 217], the “Test A rating (disease control)” value in series [1] (10 ppm test suspension) worked out at 100%. The “Test B rating (disease control)” value in series [2] (10 ppm test suspension) is recorded as 0%. Besides, in series [3], the “Test C rating (disease control)” value was 100* %.
Consider `CCO/C(=C\Oc1ccc(Cn2cc(C(=O)OCC(C)C)cn2)cc1)C(F)(F)F` [compound 219], for which the “Test A rating (disease control)” value in series [1] (10 ppm test suspension) is listed as 100%. In series [2] (10 ppm test suspension), the “Test B rating (disease control)” value is 0%. The “Test C rating (disease control)” value in series [3] is 100* %.
The corresponding values for `CCO/C(=C\Oc1ccc(Cn2cc(C(=O)OCC3CC3)cn2)cc1)C(F)(F)F` [compound 220] are 100%, 0% and 100* %.
Taken in the same sequence, the figures for `CCO/C(=C\Oc1ccc(Cn2cc(C(=O)OCCC#N)cn2)cc1)C(F)(F)F` [compound 245] were 100%, 0% and 98* %.
The corresponding values for `CCO/C(=C\Oc1ccc(Cc2ncc(C(=O)NCC(F)F)s2)cc1)C(F)(F)F` [compound 276] are 13%, 0% and 100* %.
